Legend:
[1] = Influencing factor stability study on crystal forms (light, high temperature, high humidity, 30 days); format: physicochemical
[2] = Dynamic vapor sorption (DVS) hygroscopicity testing; format: physicochemical
From the text: According to the description of hygroscopicity characteristics and the definitions of hygroscopic weight gains in "General Rule 9103, Guidelines for Hygroscopicity Trials for Pharmaceuticals" in the Chinese Pharmacopoeia, Volume IV, 2015 Edition, • deliquescent: sufficient water is absorbed to form a liquid; • extremely hygroscopic: the hygroscopic weight gain is not less than 15%; • hygroscopic: the hygroscopic weight gain is less than 15% but not less than 2%; • slightly hygroscopic: the hygroscopic weight gain is less than 2% but not less than 0.2%; nonhygroscopic or practically nonhygroscopic: the hygroscopic weight gain is less than 0.2%.
DVS refers to dynamic vapor sorption: The analysis was performed using SMS DVS Advantage; at 25 °C, the humidity was changed as follows: 50%-95%-0%-95%-50%, in steps of 10% (5% for the last step) (specific humidity ranges are shown in corresponding patterns, and those listed here were used in most cases); the criterion was dm/dt being not greater than 0.002%.

[3] = Light exposure (4500 Lux), 5 days
[4] = Light exposure (4500 Lux), 10 days
[5] = Light exposure (4500 Lux), 30 days
[6] = Light exposure (4500 Lux), 7 days
[7] = Light exposure (4500 Lux), 14 days

C=CC(=O)N1CCN2C(=O)c3cc(F)c(-c4ccc(F)c5sc(N)c(C#N)c45)c4c(Cl)nn(c34)CC[C@H]2C1 [crystal form C]
Did not change: Crystal form ([1]; 40 °C, 5 days) | Crystal form ([1]; 40 °C, 10 days) | Crystal form ([1]; 40 °C, 30 days) | Crystal form ([1]; 60 °C, 5 days) | Crystal form ([1]; 60 °C, 10 days) | Crystal form ([1]; 60 °C, 30 days) | Crystal form ([1]; 75% RH, 5 days) | Crystal form ([1]; 75% RH, 10 days) | Crystal form ([1]; 75% RH, 30 days) | Crystal form ([1]; 92.5% RH, 5 days) | Crystal form ([1]; 92.5% RH, 10 days) | Crystal form ([1]; 92.5% RH, 30 days) | Crystal form [1, 3] | Crystal form [1, 4] | Crystal form [1, 5]
98.2%: Purity (%) ([1]; Initial, 0 days)
98.0%: Purity (%) ([1]; 40 °C, 5 days) | Purity (%) ([1]; 60 °C, 5 days) | Purity (%) [1, 3]
Crystal form C: Crystal form ([1]; Initial, 0 days)
Off-white solid: Color and state ([1]; 40 °C, 5 days) | Color and state ([1]; 40 °C, 10 days) | Color and state ([1]; 40 °C, 30 days) | Color and state ([1]; 60 °C, 5 days) | Color and state ([1]; 60 °C, 10 days) | Color and state ([1]; 60 °C, 30 days) | Color and state ([1]; 75% RH, 5 days) | Color and state ([1]; 75% RH, 10 days) | Color and state ([1]; 75% RH, 30 days) | Color and state ([1]; 92.5% RH, 5 days) | Color and state ([1]; 92.5% RH, 10 days) | Color and state ([1]; 92.5% RH, 30 days) | Color and state ([1]; Initial, 0 days) | Color and state [1, 3] | Color and state [1, 4] | Color and state [1, 5]
97.6%: Purity (%) ([1]; 40 °C, 10 days)
97.2%: Purity (%) ([1]; 40 °C, 30 days)
97.5%: Purity (%) ([1]; 60 °C, 30 days) | Purity (%) [1, 5]
98.1%: Purity (%) ([1]; 75% RH, 5 days) | Purity (%) ([1]; 75% RH, 10 days) | Purity (%) ([1]; 75% RH, 30 days) | Purity (%) ([1]; 92.5% RH, 5 days) | Purity (%) ([1]; 92.5% RH, 10 days) | Purity (%) ([1]; 92.5% RH, 30 days)
97.9%: Purity (%) ([1]; 60 °C, 10 days) | Purity (%) [1, 4]

C=CC(=O)N1CCN2C(=O)c3cc(F)c(-c4ccc(F)c5sc(N)c(C#N)c45)c4c(Cl)nn(c34)CC[C@H]2C1 [crystal form F]
did not change: crystal form re-identified after DVS testing ([2]; after DVS testing)
Off-white solid: Color and state ([1]; 40 °C, 5 days) | Color and state ([1]; 40 °C, 10 days) | Color and state ([1]; 40 °C, 30 days) | Color and state ([1]; 60 °C, 5 days) | Color and state ([1]; 60 °C, 10 days) | Color and state ([1]; 60 °C, 30 days) | Color and state ([1]; 75% RH, 5 days) | Color and state ([1]; 75% RH, 10 days) | Color and state ([1]; 75% RH, 30 days) | Color and state ([1]; 92.5% RH, 5 days) | Color and state ([1]; 92.5% RH, 10 days) | Color and state ([1]; 92.5% RH, 30 days) | Color and state ([1]; Initial, 0 days) | Color and state [1, 3] | Color and state [1, 4] | Color and state [1, 5]
97.8%: Purity (%) ([1]; 40 °C, 5 days) | Purity (%) ([1]; 60 °C, 5 days) | Purity (%) [1, 3] | Purity (%) [1, 4]
97.7%: Purity (%) ([1]; 60 °C, 10 days) | Purity (%) [1, 5]
96.7%: Purity (%) ([1]; 40 °C, 30 days)
about 6.65%: hygroscopic weight gain ([2]; extreme conditions (90% RH))
did not overlap: desorption process of the sample versus its adsorption process ([2]; humidity changing from 0% to 95% RH)
Did not change: Crystal form ([1]; 40 °C, 5 days) | Crystal form ([1]; 40 °C, 10 days) | Crystal form ([1]; 40 °C, 30 days) | Crystal form ([1]; 60 °C, 5 days) | Crystal form ([1]; 60 °C, 10 days) | Crystal form ([1]; 60 °C, 30 days) | Crystal form ([1]; 75% RH, 5 days) | Crystal form ([1]; 75% RH, 10 days) | Crystal form ([1]; 75% RH, 30 days) | Crystal form ([1]; 92.5% RH, 5 days) | Crystal form ([1]; 92.5% RH, 10 days) | Crystal form ([1]; 92.5% RH, 30 days) | Crystal form [1, 3] | Crystal form [1, 4] | Crystal form [1, 5]
about 6.44%: hygroscopic weight gain ([2]; accelerated experimental conditions (70% RH))
97.9%: Purity (%) ([1]; 75% RH, 5 days) | Purity (%) ([1]; 75% RH, 10 days) | Purity (%) ([1]; 75% RH, 30 days) | Purity (%) ([1]; 92.5% RH, 5 days) | Purity (%) ([1]; 92.5% RH, 10 days) | Purity (%) ([1]; 92.5% RH, 30 days) | Purity (%) ([1]; Initial, 0 days)
97.3%: Purity (%) ([1]; 60 °C, 30 days)
Crystal form F: Crystal form ([1]; Initial, 0 days)
97.5%: Purity (%) ([1]; 40 °C, 10 days)
about 6.35%: hygroscopic weight gain ([2]; normal storage conditions (25 °C and 60% RH))

C=CC(=O)N1CCN2C(=O)c3cc(F)c(-c4ccc(F)c5sc(N)c(C#N)c45)c4c(Cl)nn(c34)CC[C@H]2C1 [crystal form H]
98.2%: Purity (%) ([1]; 40 °C, 7 days) | Purity (%) ([1]; 60 °C, 14 days)
Off-white solid: Color and state ([1]; 40 °C, 7 days) | Color and state ([1]; 40 °C, 14 days) | Color and state ([1]; 40 °C, 30 days) | Color and state ([1]; 60 °C, 7 days) | Color and state ([1]; 60 °C, 14 days) | Color and state ([1]; 60 °C, 30 days) | Color and state ([1]; 75% RH, 7 days) | Color and state ([1]; 75% RH, 14 days) | Color and state ([1]; 75% RH, 30 days) | Color and state ([1]; 92.5% RH, 7 days) | Color and state ([1]; 92.5% RH, 14 days) | Color and state ([1]; 92.5% RH, 30 days) | Color and state ([1]; Initial, 0 days) | Color and state [1, 6] | Color and state [1, 7] | Color and state [1, 5]
Crystal form H: Crystal form ([1]; Initial, 0 days)
94.0%: Purity (%) [1, 5]
98.4%: Purity (%) ([1]; 75% RH, 7 days) | Purity (%) ([1]; 75% RH, 30 days)
97.7%: Purity (%) ([1]; 40 °C, 30 days) | Purity (%) ([1]; 60 °C, 30 days)
96.8%: Purity (%) [1, 7]
Did not change: Crystal form ([1]; 40 °C, 7 days) | Crystal form ([1]; 40 °C, 14 days) | Crystal form ([1]; 40 °C, 30 days) | Crystal form ([1]; 60 °C, 7 days) | Crystal form ([1]; 60 °C, 14 days) | Crystal form ([1]; 60 °C, 30 days) | Crystal form ([1]; 75% RH, 7 days) | Crystal form ([1]; 75% RH, 14 days) | Crystal form ([1]; 75% RH, 30 days) | Crystal form ([1]; 92.5% RH, 7 days) | Crystal form ([1]; 92.5% RH, 14 days) | Crystal form ([1]; 92.5% RH, 30 days) | Crystal form [1, 6] | Crystal form [1, 7] | Crystal form [1, 5]
98.1%: Purity (%) ([1]; 40 °C, 14 days)
97.8%: Purity (%) [1, 6]
98.3%: Purity (%) ([1]; 60 °C, 7 days) | Purity (%) ([1]; 75% RH, 14 days) | Purity (%) ([1]; 92.5% RH, 7 days) | Purity (%) ([1]; 92.5% RH, 14 days) | Purity (%) ([1]; 92.5% RH, 30 days) | Purity (%) ([1]; Initial, 0 days)

C=CC(=O)N1CCN2C(=O)c3cc(F)c(-c4ccc(F)c5sc(N)c(C#N)c45)c4c(Cl)nn(c34)CC[C@H]2C1 [crystal form L]
99.0%: Purity (%) ([1]; 40 °C, 14 days) | Purity (%) ([1]; 60 °C, 14 days)
98.6%: Purity (%) [1, 6]
98.9%: Purity (%) ([1]; 40 °C, 30 days) | Purity (%) ([1]; 60 °C, 30 days)
Crystal form L: Crystal form ([1]; Initial, 0 days)
Did not change: Crystal form ([1]; 40 °C, 7 days) | Crystal form ([1]; 40 °C, 14 days) | Crystal form ([1]; 40 °C, 30 days) | Crystal form ([1]; 60 °C, 7 days) | Crystal form ([1]; 60 °C, 14 days) | Crystal form ([1]; 60 °C, 30 days) | Crystal form ([1]; 75% RH, 7 days) | Crystal form ([1]; 75% RH, 14 days) | Crystal form ([1]; 75% RH, 30 days) | Crystal form ([1]; 92.5% RH, 7 days) | Crystal form ([1]; 92.5% RH, 14 days) | Crystal form ([1]; 92.5% RH, 30 days) | Crystal form [1, 6] | Crystal form [1, 7] | Crystal form [1, 5]
98.2%: Purity (%) [1, 7]
Off-white solid: Color and state ([1]; 40 °C, 7 days) | Color and state ([1]; 40 °C, 14 days) | Color and state ([1]; 40 °C, 30 days) | Color and state ([1]; 60 °C, 7 days) | Color and state ([1]; 60 °C, 14 days) | Color and state ([1]; 60 °C, 30 days) | Color and state ([1]; 75% RH, 7 days) | Color and state ([1]; 75% RH, 14 days) | Color and state ([1]; 75% RH, 30 days) | Color and state ([1]; 92.5% RH, 7 days) | Color and state ([1]; 92.5% RH, 14 days) | Color and state ([1]; 92.5% RH, 30 days) | Color and state ([1]; Initial, 0 days) | Color and state [1, 6] | Color and state [1, 7] | Color and state [1, 5]
98.3%: Purity (%) [1, 5]
99.1%: Purity (%) ([1]; 40 °C, 7 days) | Purity (%) ([1]; 60 °C, 7 days) | Purity (%) ([1]; 75% RH, 7 days) | Purity (%) ([1]; 75% RH, 14 days) | Purity (%) ([1]; 75% RH, 30 days) | Purity (%) ([1]; 92.5% RH, 7 days) | Purity (%) ([1]; 92.5% RH, 14 days) | Purity (%) ([1]; 92.5% RH, 30 days) | Purity (%) ([1]; Initial, 0 days)
